Patent publication US20220009951A1, “TORSEMIDE PHOSPHATE PRODRUG, PREPARATION METHOD AND COMPOSITION THEREOF” (Shanghai Xunhe Pharmaceutical Technology Co. Ltd., priority 2019, published 2022)
Entries after “also recorded” stand apart in the source; their conditions may differ. Structures can show the parent of a compound that is named as a salt.

What was measured:
Male SD rats = experiment: Comparison of diuretic effects (urine output of saline-loaded rats); assay type: in vivo, rat; conditions: 30 mL/kg normal saline intragastrically, drug 10 mg/kg iv, urine collected for 4 h
Description: Comparison of Diuretic Effects:
Male SD rats (body weight 180±20 g) were divided into seven groups randomly, three rats a group, and each rat was administered intragastrically 30 mL/kg normal saline. After intragastric administration of normal saline, except the blank control group, each group was given one drug (10 mg/kg, iv, 1 mg/mL, formulation prescription: 0.5% methylcellulose), and the urination was collected for 4 hours.

[1] = Comparison of water solubility of different forms of samples
[2] = cited from earlier work
[3] = cited from earlier work; remark: listed apart in the source

Row | SMILES | Urine output (mL/kg, 4 h) (Male SD rats) [mL/kg] | Conclusion (water solubility class) [1] | pKa value [2] | solubility in 0.1 mol/L sodium hydroxide solution ([3]; 0.1 mol/L sodium hydroxide solution) | solubility in water ([3]; water)
1 | Cc1cccc(Nc2ccncc2S(=O)(=O)N(COP(=O)(O)O)C(=O)NC(C)C)c1 [Compound of formula I, N-hydroxymethyl-torsemide phosphate] | 105.4 | soluble |  |  | 
2 | Cc1cccc(Nc2ccncc2S(=O)(=O)N(COP(=O)([O-])[O-])C(=O)NC(C)C)c1.[Na+].[Na+] [Compound of formula Ia, disodium N-hydroxymethyl-torsemide phosphate] | 121.6 |  |  |  | 
3 | Cc1cccc(Nc2ccncc2S(=O)(=O)N(COP(=O)([O-])[O-])C(=O)NC(C)C)c1.[K+].[K+] [Compound of formula Ib, dipotassium N-hydroxymethyl-torsemide phosphate] | 116.8 |  |  |  | 
4 | Cc1cccc(Nc2ccncc2S(=O)(=O)N(COP(=O)(O)O)C(=O)NC(C)C)c1 [Compound of formula Ic, N-hydroxymethyl-torsemide phosphate triethylammonium salt] | 103.4 | easily soluble |  |  | 
5 | Cc1cccc(Nc2ccncc2S(=O)(=O)N(COP(=O)(O)O)C(=O)NC(C)C)c1 [Compound of formula Id, N-hydroxymethyl-torsemide phosphate tri-n-butylammonium salt] | 105.6 | easily soluble |  |  | 
6 | Cc1cccc(Nc2ccncc2S(=O)(=O)NC(=O)NC(C)C)c1 [Torsemide, 1-[4-(3-methylphenyl)aminopyridin-3-yl]sulfonyl-3-isopropylurea] | 100.3 |  | 6.44 | slightly soluble | almost insoluble; also recorded: very slightly soluble
